# Key:
# [1] = cited from earlier work
# hemichannels = test system: hemichannels; parameters: method as in O’Carroll et al., 2008; conditions: in vitro; ref O’Carroll et al., 2008; cited from earlier work
# [2] = test system: gap junctions in hCMVEC cells; conditions: 100 µM, mean ± SEM
# Description: We next investigated the ability of peptide5 variants to inhibit gap junctional communication using a scrape loading assay. In this assay, the cells in culture are loaded with a dye (Lucifer Yellow dilithium salt (LY), M.W. 457.25 Da) of molecular size (<1 kDa) that is able to transit through the gap junctions and the degree of dye spread is then measured by counting the number of cells that contain LY (Supplementary Material, Method 4) ^1. Consistent with our previous study, peptide5 (1) and Cbx reduced the degree of dye spread following incubation with LY (56.16 ± 2.1%; p < 0.0001 and 16.2 ± 1.1%; p < 0.0001, respectively) compared to the untreated controls (Figure 12).
# Human cerebral microvascular endothelial cells (hCMVEC) were purchased from Applied Biological Materials (ABM) Inc, Canada (cat # T0259) (O'Carroll et al., 2015). Cells were cultured in 1 μg/cm^2 collagen I (Gibco) coated T75 flasks from Corning (NY, USA). The growth media was M199 media (Gibco), supplemented with 10% FBS, 1 μg/mL hydrocortisone (Sigma), 3 μg/mL human FGF (Peprotech), 10 μg/mL human EGF (Peprotech), 10 μg/mL heparin (Sigma), 2 mM Glutamax (Gibco), and 80 μM butyryl cAMP (Sigma).
# For experiments hCMVECs cells were plated M199 media at a density of 4 x 10^5 cells per well in a collagen coated (1 µg/cm^2) 12-well plate the day prior to the experiment to ensure a confluent monolayer of hCMVECs. On the day of the experiment cells were pre-incubated in carbenoxolone, (100 µM) Peptide5 (5–100 µM) or modified analogues (100 µM) or M199 as a negative control. Cells were washed three times with phosphate buffered saline (PBS) without Ca^2+ or Mg^2+ and incubated in 0.05% Lucifer Yellow (LY) (Sigma), a fluorescent dye that is transferred through coupled gap junction channels (el-Fouly, Trosko, & Chang, 1987), and scrape-wounded with a size 10 carbon steel surgical blade (Swann-Morton, England). Following a 5 minute incubation at 37 °C in 95% O2 and 5% CO2 without light, the 0.05% LY solution was removed. Cells were rinsed four times with HBSS containing Ca^2+ ^+, and then fixed in 4% paraformaldehyde (PFA) in PBS at pH 7.4 for 10 minutes at room temperature. Cells were then washed 3 times in PBS to remove PFA before fluorescent imaging. Fluorescent images were visualized using a Nikon TE2000E inverted fluorescent microscope (10x magnification, 0.3 numerical aperture), and captured using a Digital Sight CCD camera and Eclipse Net software (Nikon). Three images within each well from three independent experiments were taken for analysis, and the total number of cells showing dye uptake from those that had been loaded were counted manually by masked observers. Each peptide was tested in at least an n of 2 separate experiments.
# gap junctions = conditions: cited from earlier work
# [3] = Human serum stability assay (RP-HPLC)
# Description: We then evaluated the N-methylated variants 7 and 8, D amino acid variants 9 and 10, and the two carbo cyclic peptides 39 and 42. Each peptide was incubated with 25% aq. human serum at 37°C, and 6 aliquots were extracted within 48 h. The stability of each peptide upon exposure to human serum was then analyzed via analytical RP HPLC, and the amount of peptide still present at each time point was recorded relative to t = 0 h.
# Whole blood was collected from a healthy volunteer and stored in a covered test tube and was allowed to clot by leaving it undisturbed at r.t. for ca. 1 h. The clot was removed by centrifugation at 1,000-2,000 x g for 10 min and the resulting supernatant was designated as the serum. The serum was collected and stored in 0.5 mL aliquots, whereby the samples were stored at - 20 °C.
# 200 µM concentration of peptide was incubated in 25% aq. human serum (1.7 mL) and left to shake at 37 °C. Aliquots of human serum-peptide mixture (270 µL) were taken at given times (0 h, 1 h, 4 h, 8 h, 24 h, and 48 h) and threefold excess of acetonitrile (810 µL) was added to the aliquot and left for 1 h at 0 °C. The samples underwent centrifugation (14,500 rpm) for 30 min at r.t. and the supernatant was subsequently collected. Upon evaporation of the solvents, the resulting dry, pale-yellow residue was dissolved in water containing 0.1 % TFA.
# The dissolved solution was analysed via analytical RP HPLC and the quantity of the peptide was expressed as a percentage relative to the peptide peak area obtained at time zero (i.e. 100% peptide amount at t = 0 h). A scatterplot graph representing percentage of peptide versus time was generated.
# [4] = parameters: method as in Kumagai et al., 1991; conditions: ref Kumagai et al., 1991; cited from earlier work
substance,measurement,setting,value
"H-VDCFLSRPTEKT-OH [peptide5, H2N-VDCFLSRPTEKT-CO2H]",half-life in rat serum,[1],5 min
same,concentration selectively inhibiting hemichannels,hemichannels,≥ 5 µM
same,LY dye spread (number of LY-positive cells) as percentage of untreated control,[2],56.16 ± 2.1%
same,concentration inhibiting both gap junctions and hemichannels,"gap junctions; in vitro, higher concentrations, ref O’Carroll et al., 2008",500 µM
same,time to complete degradation in human serum,[3],≤ 10 h
SRPTEKT [a truncated peptide5],gap junction inhibition compared with peptide5 (result in words),"gap junctions; ref Kim et al., 2017b",equally effective as a gap junction inhibitor
cilengitide,increase in binding compared to its linear form,[4],10 fold
